Consider 19 molecules from US11479551B2, “MTA-cooperative PRMT5 inhibitors” (Mirati Therapeutics, Inc., priority 2019, dated 2022).

SMILES strings stand for the structures. Like-named read-outs stand apart in the source and are kept apart here.

Assay [1] deals with PRMT5-dependent Symmetric Di-methyl Arginine signal in HCT116 homozygous MTAP knockout cells. Put plainly: SYM11 In-Cell Western, HCT116 MTAP knockout. The class given is cell-based. The following applies: HCT116 homozygous MTAP knockout cells, 4 days of treatment, SYM11/DRAQ5 ratio, read-out: In-cell-Western (SYM11) HCT116 MTAP_KO IC50.
Assay [2] deals with HCT116 homozygous MTAP knockout cells. Nature of the assay: Proliferation assay (CellTiter-Glo, 10 days of treatment), HCT116 MTAP knockout. The class given is cell-based. The following applies: read-out: Proliferation HCT116MTAP_KO IC50. In short, it runs like this: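 Cells (250/well) seeded in McCoy's 5A with 10% FBS, then treated the next day with a PRMT5 inhibitor dose response at 37 °C, 5% CO2. On day 6 they were split 1:10 into fresh medium with the same compound concentration. CellTiter-Glo viability was read on day 11 and IC50 taken after 10 days of treatment.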

In assay [3] the target is T1, PRMT5/MEP50 complex (Homo sapiens (Human), UniProt O14744). Put plainly: PRMT5:MEP50 HotSpot Assay (full-length histone H2A substrate, plus and minus MTA). The class given is biochemical. The following applies: in the presence of 2 μM MTA. In short, it runs like this: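 Radiometric filter-binding format using recombinant full-length histone H2A as substrate. After the reaction was stopped, mixtures went onto filter paper and tritiated H2A was quantified by scintillation counting.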

For assay [4], the system named is PRMT5-dependent Symmetric Di-methyl Arginine signal in HCT116 parental cells. Nature of the assay: SYM11 In-Cell Western, HCT116 parental. The format is cell-based. The settings on record: Homo sapiens, HCT-116, 96 h, 4 days of treatment, SYM11/DRAQ5 ratio. The protocol:
Control samples were analyzed in parallel.
Briefly, on Day 0, 2,000 HCT116 parental or HCT116 homozygous MTAP knockout cells were seeded in 96 well plates in McCoy's 5A supplemented with 10% fetal bovine serum and pen/strep and the cells were incubated overnight at 37° C. plus 5% CO2. The following day, cells were treated with DMSO vehicle control or a dose response of PRMT5 inhibitors, and incubated at 37° C. plus 5% CO^2 for four days.
After 4 days of treatment, the cells were fixed by adding 50 μl of 4% paraformaldehyde solution to each well and the cells were incubated for 20 min at room temperature. The paraformaldehyde solution was removed, 150 μl of ice-cold methanol was added and the plate was placed −20° C. for 10 minutes. The methanol was removed, 150 μl of Odyssey Blocking buffer+0.05% Tween20 was added and the plate was incubated at room temperature with shaking for one hour.
The primary SYM11 antibody solution was removed by aspiration and the wells were washed three consecutive times with phosphate buffered saline containing 0.1% Tween-20 (PBST).
The secondary antibody solution was removed by aspiration and the wells were washed three consecutive times with PB ST.
The SYM11 signal and the DRAQ5 signal were quantified using a Li-Cor Odyssey machine reading at […], respectively. The SYM11/DRAQ5 ratio was used to calculate the inhibition of Symmetric Dimethyl Arginine as percent of DMSO control.

For assay [5], the target named is T1, PRMT5/MEP50 complex. Nature of the assay: PRMT5:MEP50 FlashPlate Assay (histone H4 peptide substrate, plus and minus MTA). The class given is biochemical. The protocol:
The PRMT5 inhibitory activity of compounds of the present invention was determined using either a PRMT5:MEP50 FlashPlate Assay (Reaction Biology Corporation) or a PRMT5:MEP50 HotSpot Assay (Reaction Biology Corporation).
1. PRMT5:MEP50 FlashPlate Assay

The mark [6] stands for this setting: IC50 + 2 μM MTA (nM), in the presence of 2 μM MTA.
The mark [7] stands for this setting: in the absence of MTA, read-out: IC50.

T1 sequence (O14744 2-637): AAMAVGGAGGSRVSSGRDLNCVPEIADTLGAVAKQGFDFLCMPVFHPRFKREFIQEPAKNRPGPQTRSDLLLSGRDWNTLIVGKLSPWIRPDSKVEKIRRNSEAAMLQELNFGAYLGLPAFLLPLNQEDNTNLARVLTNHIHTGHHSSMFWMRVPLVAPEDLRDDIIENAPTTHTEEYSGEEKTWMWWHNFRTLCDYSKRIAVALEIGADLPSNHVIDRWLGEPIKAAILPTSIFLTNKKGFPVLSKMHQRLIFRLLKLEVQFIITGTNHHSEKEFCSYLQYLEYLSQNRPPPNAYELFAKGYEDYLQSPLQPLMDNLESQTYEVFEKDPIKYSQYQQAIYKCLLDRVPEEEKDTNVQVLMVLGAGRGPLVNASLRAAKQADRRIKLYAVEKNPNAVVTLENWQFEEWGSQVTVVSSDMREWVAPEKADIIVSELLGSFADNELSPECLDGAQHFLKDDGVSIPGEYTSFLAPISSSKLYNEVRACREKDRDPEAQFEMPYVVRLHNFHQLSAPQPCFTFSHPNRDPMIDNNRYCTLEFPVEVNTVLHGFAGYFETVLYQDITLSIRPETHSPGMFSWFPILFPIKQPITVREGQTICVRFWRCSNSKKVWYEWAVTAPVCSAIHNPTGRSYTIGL
T1 sequence (Q9BQA1 2-342 partner): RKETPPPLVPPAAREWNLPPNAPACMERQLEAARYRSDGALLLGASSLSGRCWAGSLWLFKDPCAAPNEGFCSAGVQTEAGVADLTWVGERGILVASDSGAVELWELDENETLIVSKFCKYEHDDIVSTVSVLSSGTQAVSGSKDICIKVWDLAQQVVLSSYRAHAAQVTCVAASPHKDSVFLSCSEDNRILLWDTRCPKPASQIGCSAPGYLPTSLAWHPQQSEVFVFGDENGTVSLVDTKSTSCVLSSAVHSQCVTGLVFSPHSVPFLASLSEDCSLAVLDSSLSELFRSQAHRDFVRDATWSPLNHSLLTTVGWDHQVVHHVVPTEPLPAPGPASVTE

For the molecule `COc1cccc(-c2c(-c3ccc4c(=O)[nH]nc(CN)c4c3)cnn2C)c1C#N` [Example 4-107, 2-(4-(4-(aminomethyl)-1-oxo-1,2-dihydrophthalazin-6-yl)-1-methyl-1H-pyrazol-5-yl)-6-methoxybenzonitrile], the IC50 in assay [1] (Homo sapiens, HCT-116, 96 h) stood at 0.031 µM; in assay [2] (Homo sapiens, HCT-116, 240 h), 1.06 µM; on PRMT5/MEP50 complex [3] (IC50 + 2 μM MTA), 0.76 µM; in assay [4], 10 µM; on PRMT5/MEP50 complex [5] (setting [6]) it was 0.5 nM; on PRMT5/MEP50 complex [5] (setting [7]), 37 nM.

As to `CC(N)c1n[nH]c(=O)c2ccc(-c3cnn(C)c3-c3cccc(Cl)c3C#N)cc12` (single isomer, unassigned) [Example 9-2, 2-[4-[4-(1-aminoethyl)-1-oxo-2H-phthalazin-6-yl]-2-methyl-pyrazol-3-yl]-6-chloro-benzonitrile], the IC50 in assay [1] was above 1 µM; in assay [2], above 10 µM; on PRMT5/MEP50 complex [3] (IC50 + 2 μM MTA), above 10 µM; on PRMT5/MEP50 complex [5] (setting [6]), above 10000 nM.

For the molecule `CCOc1ccc(-c2c(-c3ccc4c(=O)[nH]nc(CN)c4c3)cnn2C)cc1` [Example 4-254, 4-(aminomethyl)-6-[5-(4-ethoxyphenyl)-1-methyl-pyrazol-4-yl]-2H-phthalazin-1-one], the IC50 in assay [1] (Homo sapiens, HCT-116, 96 h) came to 0.377 µM; in assay [2] (Homo sapiens, HCT-116, 240 h) it was 2.17 µM; in assay [4] it was 3.33 µM.

As to `Cc1ccc(C#N)c(-c2c(-c3ccc4c(=O)[nH]nc(CN)c4c3)cnn2C)c1` [Example 4-105, 2-(4-(4-(aminomethyl)-1-oxo-1,2-dihydrophthalazin-6-yl)-1-methyl-1H-pyrazol-5-yl)-4-methylbenzonitrile], the IC50 in assay [1] (Homo sapiens, HCT-116, 96 h) stood at 0.469 µM; in assay [2] (Homo sapiens, HCT-116, 240 h), 1.4 µM; at PRMT5/MEP50 complex [3] (IC50 + 2 μM MTA), 1 µM; in assay [4], 10 µM; at PRMT5/MEP50 complex [5] (setting [6]) it was 1.8 nM; at PRMT5/MEP50 complex [5] (setting [7]) it was 71 nM.

Take `Cn1ncc(-c2ccc3c(=O)[nH]nc(CN)c3c2)c1-c1ccc(Cl)cc1C#N` [Example 4-101, 2-(4-(4-(aminomethyl)-1-oxo-1,2-dihydrophthalazin-6-yl)-1-methyl-1H-pyrazol-5-yl)-5-chlorobenzonitrile]: the IC50 in assay [1] (Homo sapiens, HCT-116, 96 h) was determined as 0.376 µM; in assay [2] (Homo sapiens, HCT-116, 240 h) it was 2.31 µM; at PRMT5/MEP50 complex [3] (IC50 + 2 μM MTA) it was 0.892 µM; in assay [4] it was 6.67 µM; on PRMT5/MEP50 complex [5] (setting [6]) it was 0.5 nM; at PRMT5/MEP50 complex [5] (setting [7]) it was 17 nM.

Consider `NCc1n[nH]c(=O)c2ccc(-c3cnc4[nH]cc(-c5ccccc5)c4c3)cc12` [Example 4-190, 4-(aminomethyl)-6-(3-phenyl-1H-pyrrolo[2,3-b]pyridin-5-yl)phthalazin-1(2H)-one], for which the IC50 was above 3.33 µM in assay [1] (Homo sapiens, HCT-116, 96 h); 1.98 µM in assay [2] (Homo sapiens, HCT-116, 240 h); 0.278 µM on PRMT5/MEP50 complex [3] (IC50 + 2 μM MTA); above 3.33 µM in assay [4].

Consider `Cn1ncc(-c2ccc3c(=O)[nH]nc(CN)c3c2)c1-c1cc(Cl)ccc1C#N` [Example 4-103, 2-(4-(4-(aminomethyl)-1-oxo-1,2-dihydrophthalazin-6-yl)-1-methyl-1H-pyrazol-5-yl)-4-chlorobenzonitrile], for which the IC50 in assay [1] (Homo sapiens, HCT-116, 96 h) came out at 0.255 µM; in assay [2] (Homo sapiens, HCT-116, 240 h), 4.39 µM; in assay [4], 6.67 µM; on PRMT5/MEP50 complex [5] (setting [6]), 0.5 nM; at PRMT5/MEP50 complex [5] (setting [7]) it was 115 nM.

Regarding `Cn1ncc(-c2ccc3c(=O)[nH]nc(CN)c3c2)c1-c1ccc(OC2CC2)c2cncn12` [Example 4-238, 4-(aminomethyl)-6-(5-(8-cyclopropoxyimidazo[1,5-a]pyridin-5-yl)-1-methyl-1H-pyrazol-4-yl)phthalazin-1(2H)-one], the IC50 came to 0.843 µM in assay [1] (Homo sapiens, HCT-116, 96 h); 1.94 µM in assay [2] (Homo sapiens, HCT-116, 240 h); 2.31 µM at PRMT5/MEP50 complex [3] (IC50 + 2 μM MTA).

With `Cn1ncc(-c2c(-c3ccc4c(=O)[nH]nc(CN)c4c3)cnn2C)c1Cl` [Example 4-185, 4-(aminomethyl)-6-(5′-chloro-1′,2-dimethyl-1′H,2H-[3,4′-bipyrazol]-4-yl)phthalazin-1(2H)-one], the IC50 was determined as 0.167 µM in assay [1] (Homo sapiens, HCT-116, 96 h); 3.02 µM in assay [2] (Homo sapiens, HCT-116, 240 h); 1.16 µM on PRMT5/MEP50 complex [3] (IC50 + 2 μM MTA).

On to `Cc1ccc(-c2c(-c3ccc4c(=O)[nH]nc(CN)c4c3)cnn2C)c(C#N)c1` [Example 4-106, 2-(4-(4-(aminomethyl)-1-oxo-1,2-dihydrophthalazin-6-yl)-1-methyl-1H-pyrazol-5-yl)-5-methylbenzonitrile], for which the IC50 in assay [1] (Homo sapiens, HCT-116, 96 h) is 0.261 µM; in assay [2] (Homo sapiens, HCT-116, 240 h), 1.6 µM; at PRMT5/MEP50 complex [3] (IC50 + 2 μM MTA) it was 0.816 µM; in assay [4] it was 3.33 µM; at PRMT5/MEP50 complex [5] (setting [6]), 0.5 nM; on PRMT5/MEP50 complex [5] (setting [7]), 56 nM.

For the molecule `Cn1ncc(-c2ccc3c(=O)[nH]nc(CN)c3c2)c1-c1cc(C2CCOC2)ccc1C#N` (stereo not shown) [Example 12-8, 2-[4-[4-(aminomethyl)-1-oxo-2H-phthalazin-6-yl]-2-methyl-pyrazol-3-yl]-4-THF-3-yl-benzonitrile], the IC50 in assay [1] (Homo sapiens, HCT-116, 96 h) is 2.86 µM; in assay [2] (Homo sapiens, HCT-116, 240 h) it was 7.8 µM; at PRMT5/MEP50 complex [3] (IC50 + 2 μM MTA) it was 3.86 µM.

As for `Cn1ncc(-c2ccc3c(=O)[nH]nc(CN)c3c2)c1-c1c(C#N)cc2ccccc2c1Cl` (single isomer, unassigned) [Example 16-6], the IC50 in assay [1] was determined as 0.02 µM; in assay [2], 0.064 µM; at PRMT5/MEP50 complex [3] (read-out: IC50 + 2 μM MTA), 0.028 µM.

For the molecule `NCc1n[nH]c(=O)c2ccc(-c3cnc4ccc(-c5ccccc5)nn34)cc12` [Example 4-191, 4-(aminomethyl)-6-(6-phenylimidazo[1,2-b]pyridazin-3-yl)phthalazin-1(2H)-one], the IC50 in assay [1] (Homo sapiens, HCT-116, 96 h) was 0.911 µM; in assay [2] (Homo sapiens, HCT-116, 240 h), 1.52 µM; at PRMT5/MEP50 complex [3] (IC50 + 2 μM MTA), 0.612 µM.

Turning to `Cn1cc(-c2ccc(-c3c(-c4ccc5c(=O)[nH]nc(CN)c5c4)cnn3C)c(C#N)c2)cn1` [Example 12-5, 2-(4-(4-(aminomethyl)-1-oxo-1,2-dihydrophthalazin-6-yl)-1-methyl-1H-pyrazol-5-yl)-5-(1-methyl-1H-pyrazol-4-yl)benzonitrile], the IC50 in assay [1] (Homo sapiens, HCT-116, 96 h) is 0.456 µM; in assay [2] (Homo sapiens, HCT-116, 240 h), 3.17 µM; on PRMT5/MEP50 complex [3] (IC50 + 2 μM MTA) it was 0.112 µM.

On to `Cn1ncc(-c2ccc3c(=O)[nH]nc(CN)c3c2)c1-c1cc(C#N)c2ccccc2c1C#N` [Example 4-207, 2-(4-(4-(aminomethyl)-1-oxo-1,2-dihydrophthalazin-6-yl)-1-methyl-1H-pyrazol-5-yl)naphthalene-1,4-dicarbonitrile], for which the IC50 is 0.003 µM in assay [1] (Homo sapiens, HCT-116, 96 h); 0.098 µM in assay [2] (Homo sapiens, HCT-116, 240 h); above 10 µM in assay [4].

For the molecule `Cn1ncc(-c2ccc3c(=O)[nH]nc(CN)c3c2)c1-c1ccc(-c2cnsc2)cc1C#N` [Example 12-4, 2-[4-[4-(aminomethyl)-1-oxo-2H-phthalazin-6-yl]-2-methyl-pyrazol-3-yl]-5-isothiazol-4-yl-benzonitrile], the IC50 in assay [1] (Homo sapiens, HCT-116, 96 h) is 0.436 µM; in assay [2] (Homo sapiens, HCT-116, 240 h), 4.37 µM; at PRMT5/MEP50 complex [3] (IC50 + 2 μM MTA), 0.176 µM.

For `Cn1ncc(-c2ccc3c(=O)[nH]nc([C@@H](N)C(F)F)c3c2)c1-c1ccc2ccccc2c1C#N` [Example 9-7, 2-[4-[4-[(1R)-1-amino-2,2-difluoro-ethyl]-1-oxo-2H-phthalazin-6-yl]-2-methyl-pyrazol-3-yl]naphthalene-1-carbonitrile], the IC50 is above 1 µM in assay [1] (Homo sapiens, HCT-116, 96 h); above 10 µM in assay [2] (Homo sapiens, HCT-116, 240 h); 2.56 µM on PRMT5/MEP50 complex [3] (IC50 + 2 μM MTA).

Consider `Cn1ncc(-c2ccc3c(=O)[nH]nc(CN)c3c2)c1CC(C#N)c1ccccc1` (stereo not shown) [Example 4-183, 3-(4-(4-(aminomethyl)-1-oxo-1,2-dihydrophthalazin-6-yl)-1-methyl-1H-pyrazol-5-yl)-2-phenylpropanenitrile], for which the IC50 worked out at 0.324 µM in assay [1] (Homo sapiens, HCT-116, 96 h); 0.897 µM in assay [2] (Homo sapiens, HCT-116, 240 h); 2.77 µM on PRMT5/MEP50 complex [3] (IC50 + 2 μM MTA).

In the case of `Cn1ncc(-c2ccc3c(=O)[nH]nc(CN)c3c2)c1-c1cccc2c1COC2` [Example 4-220, 4-(aminomethyl)-6-(5-(1,3-dihydroisobenzofuran-4-yl)-1-methyl-1H-pyrazol-4-yl)phthalazin-1(2H)-one], the IC50 in assay [1] (Homo sapiens, HCT-116, 96 h) turned out to be 0.212 µM; in assay [2] (Homo sapiens, HCT-116, 240 h), 5.16 µM; on PRMT5/MEP50 complex [3] (IC50 + 2 μM MTA) it was 0.567 µM.
